# Measurements as given in patent publication US20260055143A1, “HIGH AFFINITY VARIANTS OF SH2 DOMAINS” (Axoiya Inc., priority 2023, published 2026).
# Tested on: PPPT{pTyr}TEVDP
# Test: Competitive ELISA, Ptn11_C variants
# Assay type: binding
# Procedure: Competitive and non-competitive phage ELISAs were performed as previously described with minor modifications to the protocol. Peptide sequences used for these analyses can be found in Table 4.
# Streptavidin (50 ng/well in TBS (50 mM Tris-HCl pH 8.0, 150 mM NaCl) was coated onto MAXISORP plates (Thermo Scientific). Phage binding was detected using HRP conjugated anti-M13 secondary antibody (1/2000 dilution, GE Healthcare) in TBS buffer containing 0.05% Tween-20 (TBT buffer). Phage binding was detected using the 3,3′,5,5′-tetramethylbenzidine (TMB) (Thermo Fisher Scientific) chromogenic substrate. Plates were read using a PowerWave XS microplate reader (BioTek).
# Competitive phage-ELISAs were used to determine binding affinity of SH2 superbinders for their cognate target. ELISAs were performed as previously described, biotinylated and phosphorylated peptides were immobilized on plates at the concentration of 0.2 μM, and available binding sites on streptavidin were blocked by adding 25 μl/well of 50 μM D-biotin in TBS. […] Data were plotted using Prism 6 software (GraphPad Software Inc) and affinity of SH2 domains was inferred from determination of the half maximal inhibition concentration (IC50).
# Peptides listed in Table 5 were used to assay for binding affinity of each corresponding SH2 domain.
substance,measurement,setting,value
"Ptn11_C^wt: wild-type PTN11_C SH2 domain, SEQ ID 57",change in affinity,with either the sSrc or sFes graft,no improvement in affinity
same,change in binding,αA-2-Arg mutation alone,not sufficient to enhance the binding
